# In patent US20250082648A1, “COMPOSITIONS AND METHODS FOR ENHANCING KRAS INHIBITOR OR SHP2 INHIBITOR EFFICACY” (New York University, priority 2023, published 2025):
# Assays:
# NSCLC lines = experiment: Cell viability and proliferation assays (CCK8, trypan blue counts, Bliss analysis); format: cell-based, human; conditions: for effect on MRTX-849 action: multiple NSCLC lines, including those not STK11 and/or KEAP1 mutant
# Experimental: Cell viability and proliferation assays. […] Media (including inhibitors) were replaced every two days. Dose-response curves were generated using the […] Cell Counting Kit-8 (CCK8) assay (Enzo, ALX-850-039-KI02). Three hours after addition of CCK-8 reagent to cells, A450 was recorded using a FlexStation 3 multi-mode microplate reader according to the manufacturer's instructions. IC50s were calculated with GraphPad Prism. For all other proliferation assays, cells were harvested and stained with trypan blue (#T8154, Sigma-Aldrich), and viable (trypan blue-excluding) cells were quantified with a Countless II automated cell counter (Invitrogen).
# KCL cells = experiment: Cell viability and proliferation assays (CCK8, trypan blue counts); conditions: combined with MRTX-849 at its IC50 dose
# YAP = experiment: YAP1 immunofluorescence (nuclear localization); format: cell-based, human
# Experimental: Immunofluorescence. […]. Cells were then fixed in 4% paraformaldehyde for 10 minutes at room temperature, rinsed three times for 5 min. each in PBS, and permeabilized in 0.1% Triton X-100/5% FBS in PBS for a 1 hr at RT. […] Nuclei were stained with DAPI (BioLegend, Cat #: 422801) for 5 min, and slides were washed two more times in PBS before mounting with Fluorescence Mounting Medium (Dako, Cat #: S3023). Images were acquired with a Zeiss 880 Laser Scanning Confocal Microscope (Axio Observer) equipped with Zen 3.0 software (ZEN blue, Carl Zeiss Inc.) and were processed by Fiji software (NIH).
# [1] = preliminary results; cited from earlier work
# KCL lung tumors = experiment: KCL GEMM (KRAS G12C; Stk11 fl/fl, Ad-Cre) long-term treatment, MRI monitoring; conditions: MRTX849 100 mg/kg/d plus SHP099 75 mg/kg/d; resistant tumors soon recurred
# YAP1 = YAP1 and DAPI immunofluorescence (YAP1 nuclear localization); format: cell-based
# From the text: […]. […] Datasets (color-coded) used for pathway analysis are indicated at right with the sizes of the circles indicating statistical significance. […]. All immunofluorescence images are representative of three independent experiments. Scale bar=20 μm.
# . FIG. 4B is a bubble plot showing pathways (p<0.05) enriched in SL genes (FDR<0.1). Datasets used for analysis are color-coded at right; the sizes of the circles indicate significance level. FIG. 4C is a Circos plot illustrating the overlap of SL genes (FDR<0.1) between lines. […]. FIGS. 10C-10D show quantification of YAP nuclear localization in presence of ROCK-I, in data from FIGS. 3G-3H. *p<0.05, 1-way ANOVA with Tukey's multiple comparisons test.
# [2] = test system: KCL syngeneic tumor grafts; experiment: KCL syngeneic tumor grafts in C57BL/6J mice; format: in vivo, mouse; conditions: MRTX-849 100 mg/kg/d, 30 days of treatment; VT104 10 mg/kg/d
# Experimental: (§1) For syngeneic tumor experiments, KCL cells (10^6 in 200 ml PBS) were injected subcutaneously into the right flanks of male C57BL/6J mice (Jackson Laboratory). For xenografts, H2030 cells (5×10^6) were injected subcutaneously into the right flanks of Crl:NU-Foxn1nu/nu mice (Charles River, #088) with a 1:1 mixture of cell suspension in Matrigel (Corning, Cat #354234). […] Mice were weighed two times a week prior to dosing and throughout the study. Tumors were measured in 2 dimensions (length and width) twice a week and volumes (mm^3) were calculated as (length×width^2)/2).
# [3] = test system: H2030 cell-derived xenografts; experiment: H2030 cell-derived xenografts in nu/nu mice; format: in vivo, mouse; conditions: MRTX-849 100 mg/kg/d, 30 days of treatment; VT104 10 mg/kg/d
# Experimental: as §1
# H2122 cells = conditions: individual H2122 data (top); MRTX-849 vs vehicle 48 hr
# Experimental: Bulk RNA-seq was performed on total RNA from cell lines or isolated tumor cells by the PCC Genome Technology Center Shared Resource (GTC). Libraries were prepared with the Illumina TruSeq Stranded Total RNA Sample Preparation Kit and sequenced on an Illumina NovaSeq 6000 platform utilizing 150-bp paired end reads. Sequencing data were de-multiplexed and transformed into FASTQ format by using Illumina bcl2fastq software. […] Briefly, sequencing results were transformed into FASTQ format by using Illumina bcl2fastq software. Reads were adapter- and quality-trimmed using Trimmomatic before alignment with the human or mouse genome using the splice-aware STAR aligner. Using featureCounts (49), counts for each gene were created based on the number of aligned reads overlapping its exons. These counts were standardized and subsequently evaluated for differential expression via the DESeq2 R package, using negative binomial generalized linear models. Lastly, the Enrichr tool was employed for pathway analysis of the bulk RNA-seq data.
structure (smiles),measurement,setting,value
C=CC(=O)N1C[C@@H](n2cc(-c3cccnc3)nn2)[C@H](OCc2ccc(C(F)(F)F)cc2)C1 [MYF-03-69],effect on MRTX-849 action,NSCLC lines,synergistically augmented
C[C@H](NC(=O)c1ccc2c(-c3ccc(C(F)(F)F)cc3)cccc2c1)c1ccccn1 [VT-104],IC50 in YAP1 over-expressing cells,KCL cells,higher
same,effect on efficacy of combination MRTX849/TNO-155,"NSCLC lines; NSCLC lines, vs single agent or two drug-combinations, all at reduced doses",increased the efficacy
same,effect on MRTX-849 action,NSCLC lines,synergistically augmented
C[C@@H](NC(=O)c1ccc2c(-c3ccc(C(F)(F)F)cc3)cccc2c1)c1cccc(N)n1 [VT106],effect on drug sensitivity,NSCLC lines; inactive analog control,no effect
C[C@@H](N)[C@H]1CC[C@H](C(=O)Nc2ccncc2)CC1 [Y27632],YAP nuclear translocation induced by MRTX treatment,YAP; MRTX treatment for 24 hr plus ROCK inhibitor,inhibited
same,YAP nuclear translocation induced by MRTX treatment,YAP; after 48h of treatment plus ROCK inhibitor,to an even greater extent
same,effect of addition on MRTX-849 efficacy,NSCLC lines; two cell lines tested,increased MRTX-849 efficacy
C[C@H](CO)NC(=O)c1ccc2c(Oc3ccc(C(F)(F)F)cc3)cccc2c1 [VT3989],safety in phase 1 clinical trial,[1],safe with manageable toxicity
CC1(N)CCN(c2cnc(-c3cccc(Cl)c3Cl)c(N)n2)CC1 [SHP099],response of tumors recurred after prolonged MRTX-849 treatment,KCL lung tumors,partial responses
C=C(F)C(=O)N1C[C@@H](Nc2ncccn2)[C@H](OCc2ccc(C(F)(F)F)cc2)C1 [MYF-03-176],IC50 in YAP1 over-expressing cells,KCL cells,higher
C[C@@H](N)[C@H]1CC[C@H](C(=O)Nc2ccncc2)CC1 [Y-27632],MRTX-849-induced YAP1 nuclear localization,"YAP1; NSCLC lines, MRTX-849 at IC50 with or without Y-27632 (10 μM)",impairs MRTX-849-induced YAP1 nuclear localization
C[C@H](NC(=O)c1ccc2c(-c3ccc(C(F)(F)F)cc3)cccc2c1)c1ccccn1 [VT104],tumor response,[2],minimal
same,tumor response,[3],minimal
"C=C(F)C(=O)N1CCN(c2nc(OC[C@@H]3CCCN3C)nc3c2CCN(c2cccc4cccc(Cl)c24)C3)C[C@@H]1CC#N [MRTX-849, adagrasib]",levels of nuclear YAP,YAP; H2030 cells,increased
same,time at which nuclear YAP increase begins,YAP; H2030 cells,4 h
same,time at which nuclear YAP peaks,YAP; H2030 cells,24 to 48 h
same,nuclear translocation of YAP,"YAP1; H2030, H2122, H23, MiaPaca2 cells, MRTX-849 at IC50",induces RHO/ROCK-dependent nuclear translocation of YAP
same,"PSAP RNA-seq, column median2",H2122 cells,0.7802
